Test results taken from patent US8603460B2, “Method of making a Lactobacillus reuteri with increased acid tolerance” (Brogaia AB, priority 2006, dated 2013).
Converted amounts (≈) assume the structure as drawn. Read-outs that look alike come from different tables or passages of the source.

Columns and labels:
[1] = test system: 1063; assay: MIC on MRS plates containing lincomycin or clindamycin; assay type: cell-based; settings: strain 1063, anaerobic, 37° C., 24 h
Description: (§1) The bacteria were grown in MRS broth for 16 h at 37° C. […] After adsorption of the drops, the plates were incubated in anaerobic atmosphere at 37° C. for 24 h. The MIC was defined as the lowest antibiotic concentration for which there was no visible bacterial growth.

[2] = test system: L. reuteri DSM 17686; assay: as above; assay type: cell-based, Lactobacillus reuteri; settings: 37° C., 24 h
Description: as §1

[3] = test system: L. reuteri DSM 20016; assay: as above; assay type: cell-based, Lactobacillus reuteri; settings: Limosilactobacillus reuteri, DSM20016, strain DSM 20016 (negative control), anaerobic, 37° C., 24 h
Description: as §1

[4] = test system: L. reuteri ATCC 55730; assay: as above; assay type: cell-based, Lactobacillus reuteri; settings: Limosilactobacillus reuteri, ATCC55730, strain ATCC 55730, anaerobic, 37° C., 24 h
Description: as §1

[5] = test system: L. reuteri DSM 17938; assay: as above; assay type: cell-based, Lactobacillus reuteri; settings: strain DSM 17938, anaerobic, 37° C.
Description: as §1

[6] = test system: L. reuteri DSM 17686; assay: MIC to tetracycline with Etest; assay type: cell-based, Lactobacillus reuteri; settings: strain DSM 17686; MRS agar
Description: (§2) The bacteria were grown in MRS broth for 16 h at 37° C. After dilution to 10^5 cfu ml^−1, 1 μl of each bacterial strain was spotted on MRS plates containing lincomycin or clindamycin (concentrations 0, 0.125, 0.25, 0.5, 1, 2, 4, 8 and 16 μg ml^−1). After adsorption of the drops, the plates were incubated in anaerobic atmosphere at 37° C. for 24 h. The MIC was defined as the lowest antibiotic concentration for which there was no visible bacterial growth. MICs to tetracycline were tested with Etest (AB Biodisk) on bacteria growing on MRS agar (Oxoid) plates according to the instructions from the manufacturer.

[7] = test system: L. reuteri ATCC 55730; assay: MIC to tetracycline with Etest; assay type: cell-based, Lactobacillus reuteri; settings: Limosilactobacillus reuteri, ATCC55730; strain ATCC 55730; MRS agar; read-out: MIC to tetracycline (E-test)
Description: as §2

[8] = test system: L. reuteri DSM 17938; assay: MIC to tetracycline with Etest; assay type: cell-based, Lactobacillus reuteri; settings: strain DSM 17938; MRS agar
Description: as §2

[9] = Limosilactobacillus reuteri, DSM17686, strain DSM 17686, anaerobic, read-out: MIC
[10] = Limosilactobacillus reuteri, DSM17938, 24 h, read-out: MIC

In the case of CCC[C@@H]1C[C@@H](C(=O)N[C@@H]([C@H]2O[C@H](SC)[C@H](O)[C@@H](O)[C@H]2O)[C@@H](C)O)N(C)C1 [lincomycin], the MIC [1] is reported as > 16 µg/mL, the MIC [2, 9] is reported as > 16 µg/mL and the MIC ([2]; strain DSM 17686, anaerobic) is reported as >16 µg/mL. For the same compound, the MIC [3] was 0.25 µg/mL (≈ 0.615 µM), the MIC [4] was > 16 µg/mL and the MIC [5, 10] was 0.25 µg/mL (≈ 0.615 µM). For the same compound, the MIC ([5]; 24 h) was 0.5 µg/mL (≈ 1.23 µM).

With CN(C)[C@@H]1C(O)=C(C(N)=O)C(=O)[C@@]2(O)C(O)=C3C(=O)c4c(O)cccc4[C@@](C)(O)[C@H]3C[C@@H]12 [tetracycline] the “MIC to tetracycline (E-test)” value [6] was 12-16 μml-1, the MIC [7] was > 256 µg/mL and the “MIC to tetracycline (E-test)” value [8] was 12-16 μml-1.

CCC[C@@H]1C[C@@H](C(=O)N[C@@H]([C@H]2O[C@H](SC)[C@H](O)[C@@H](O)[C@H]2O)[C@H](C)Cl)N(C)C1 [clindamycin] was tested, and the MIC [1] was > 16 µg/mL, the MIC [2, 9] was < 0.125 µg/mL and the MIC [3] was < 0.125 µg/mL. For the same compound, the MIC [4] was < 0.125 µg/mL and the MIC [5, 10] was < 0.125 µg/mL.
